Assay [1] deals with rheumatoid arthritis patients. As to conditions: cited from earlier work.
Assay [2] concerns PLP139-151-immunized SJL mice (EAE). Briefly: Actively induced EAE in PLP139-151-immunized SJL/J mice, oral treatment. The class given is in vivo.
The mark [3] stands for this setting: Example 2, Table 2, TwHF 12.5 mg/kg/d from day 0, triptolide 10 μg/kg/d from day 8, oral.
Setting [4] is: Example 2, TwHF 12.5 mg/kg/d, triptolide 10 μg/kg/d, vs control.

As for `O=C(O)c1cc(/N=N/c2ccc(S(=O)(=O)Nc3ccccn3)cc2)ccc1O` [sulfasalazine], the ACR20 in assay [1] (24 weeks of the Phase 2 trial) is listed as 21.3%. Further, the “patients with an ACR20 response” value in assay [1] (at 2 weeks) is reported as 9.8%.

Turning to `CC(C)[C@]12O[C@H]1[C@@H]1O[C@]13[C@]1(O[C@H]1C[C@H]1C4=C(CC[C@@]13C)C(=O)OC4)[C@@H]2O` [Triptolide, triptolide], in assay [2] (setting [3]), the “Duration (mean duration of disease)” value is 7.6 ± 1 days, the “Group score (EAE clinical score 0-6)” value is given as 0.88 ± 0.09 and the Onset worked out at 13.9 ± 0.95. Further, in assay [2] (setting [4]), the “reduction in the duration of the disease” value was determined as 26.2% and the “reduction in the group score” value is 52.5%.

Source of the values: patent US20100104675A1, “Method Of Treating Demyelinating Central Nervous System Diseases” (priority 2008, published 2010).
